Assay results from patent US20260022334A1, “COMPOSITION, METHOD, AND APPLICATION THEREOF FOR IMPROVING THE QUALITY OF IN VITRO MATURATION OF OOCYTES AND PREGNANCY RATE OF EMBRYOS AFTER IN VITRO FERTILIZATION” (CHINA AGRICULTURAL UNIVERSITY, priority 2024, published 2026).
Marks after values point to notes of the source that are not given here.

Tests used:
[1] = tested on: recipient ewes; experiment: Ovine embryo transfer and pregnancy assessment; format: in vivo, sheep; details: for Pregnancy rate (%): 45 d after embryo transfer; for Number of pregnancies: B-ultrasonography 45 d after embryo transfer
Method: (§1) • Control group: a routine in vitro maturation group. • Treatment group 1: a VitC (100 μg/mL)—only administration group. • Treatment group 2: an L-carnitine (1 mg/mL)—only administration group. • Treatment group 3: a THPO (200 ng/mL)—only administration group. • Treatment group 4: a VitC (50 μg/mL) and L-carnitine (500 μg/mL) combined administration group. • Treatment group 5: a VitC (50 μg/mL) and THPO (100 ng/ml) combined administration group. • Treatment group 6: an L-carnitine (500 μg/mL) and THPO (100 ng/ml) combined administration group. • Treatment group 7: a VitC (33.3 μg/mL), L-carnitine (333.3 μg/mL), and THPO (66.7 ng/mL) combined administration group.
Transferrable embryo were selected and one blastocyst was transferred into recipient ewes using a laparoscopic procedure. Prior to embryo transfer, the ewes were fasted for at least 20 h. The embryos were transplanted into recipients with an assistant of endoscopic apparatus. The conception was detected at 45 d after embryo transfer by using B-ultrasonography and the embryo transfer pregnancy rate was calculated using the formula: […]

[2] = tested on: ovine blastocysts; experiment: Total number of blastocyst cells (DAPI staining) after in vitro maturation of ovine oocytes; format: cell-based, sheep; details: ovine 7d blastocysts, FIG. 3
Text: FIG. 3 Statistical analysis of the total number of blastocyst cells after different treatments of sheep oocyte in vitro maturation. Among them, the control group is a routine in vitro maturation group, and treatment groups 1-7 are: VitC alone group, L-carnitine alone group, THPO alone group, VitC and L-carnitine combined administration group, VitC and THPO combined administration group, L-carnitine and THPO combined administration group, VitC, L-carnitine, and THPO combined administration group. The total number of blastocyst cells were obtained by counting cells after DAPI immunofluorescence staining.
as §1
The 7d blastocysts were collected, washed 3 times with PBS containing 1 mg/ml PVA (PBS-PVA), and stained with DAPI, and the total blastocyst cell number was then determined. Specifically, the zona pellucida was removed with Tyrode's medium, and the blastocysts were then fixed in PBS containing 4% polyformaldehyde for 30 min and permeabilized using PBS containing 0.5% TritonX-100 for 20 min at room temperature. The nuclei of the blastocysts were stained with 1 μg/mL DAPI, incubated for 5 min in the dark, and then mounted onto slides. DAPI cells were observed and counted under a fluorescence microscope.

[3] = tested on: bovine recipients; experiment: Bovine embryo transfer and pregnancy rate assessment; format: in vivo; details: for Number of pregnancies: B-mode ultrasonography days 45-50; for Pregnancy rate (%): days 45-50, pregnant/recipient female animals
Method: (§2) • Control group: a routine in vitro maturation group; • Treatment group 1: a VitC (100 μg/mL)—only administration group; • Treatment group 2: an L-carnitine (1 mg/mL)—only administration group; • Treatment group 3: a THPO (200 ng/mL)—only administration group; • Treatment group 4: a VitC (50 μg/mL) and L-carnitine (500 μg/mL) combined administration group; • Treatment group 5: a VitC (50 μg/mL) and THPO (100 ng/ml) combined administration group; • Treatment group 6: an L-carnitine (500 μg/mL) and THPO (100 ng/mL) combined administration group; • Treatment group 7: a VitC (33.3 μg/mL), L-carnitine (333.3 μg/mL), and THPO (66.7 ng/mL) combined administration group.
The bovine recipients were restrained and anesthetized according to requirement of sartificial insemination. After the vulva was cleaned and disinfected, the cervix was opened and the fallopian tubes were flushed. The embryo transfer catheter was inserted deep into one uterine horn using the rectal palpation method. The plunger of a syringe connected to embryos transfer catheter was pushed to inject the embryos that had developed to the blastocyst stage after in vitro fertilization, and the embryo transfer catheter was then withdrawn. The pregnancy status was assessed by B-mode ultrasonography on days 45-50 of pregnancy, and the pregnancy rate was calculated.

[4] = tested on: bovine oocytes (COCs); experiment: In vitro maturation of bovine oocytes, in vitro fertilization and embryo culture: embryo development rate; format: cell-based; details: for D8 blastocyst rate (%): 8 d postinsemination, number of blastocysts/number of oocytes; for effect on 48-h cleavage rate compared with the control group / effect on blastocyst development efficiency compared with the control group: in words; for 48-h cleavage rate (%): number of two-cell embryos/number of oocytes
Method: as §2
(§3) The control group was a basal in vitro maturation medium, and the treatment groups (1-7) were prepared by adding different components or combined components to the basal maturation medium.
Bovine ovaries were collected from a local slaughterhouse (Dachang Hui Autonomous County, Hebei Province, China) and transported to the laboratory within two hours in saline solution containing penicillin and streptomycin. In the laboratory, bovine COCs were aspirated from follicles with a diameter of 2-8 mm to M199-HEPES containing 20 μg/mL heparin sodium, 44 μg/mL sodium pyruvate, 70 μg/mL penicillin and 50 μg/mL streptomycin. The aspirated follicular fluid was placed in 50 ml conical tubes and maintained for a period for sedimentation. The upper portion of the liquid was removed and the remaining portion was then transferred to wash buffer. COCs with a homogenous, evenly granulated ooplasm surrounded by at least three layers of compact cumulus cells were selected under a stereomicroscope for experiments. COCs were washed three times in BO-IVM medium and incubated for 22 h at 38.5° C. in a humidified atmosphere under 5% CO2 in groups of 50 containing 500 μL BO-IVM medium in four-well dishes covered with mineral oil.
After 22 h of IVM, 20 COCs were transferred to 100 μL BO-IVF medium covered with mineral oil in Petri dish (60×15 mm). Frozen-thawed sperm was purified using BO-SemenPrep. Spermatozoa were selected by Percoll method and the final concentration was adjusted to 1×10^6 in each drop. They were co-incubated in BO-IVF medium with humidified 5% CO2 in air at 38.5° C. for 18 h. Thereafter, the presumptive zygotes were transferred to BO-IVC medium in four-well dishes covered with mineral oil, and incubated with humidified 5% CO2 in air at 38.5° C. for 8 days. The cleavage rate was determined at 48 h and the blastocyst rate was estimated at 8d postinsemination.

[5] = tested on: ovine oocytes (cumulus-oocyte complexes); experiment: In vitro maturation of ovine oocytes, in vitro fertilization and embryo culture: embryo development rate; format: cell-based, sheep; details: mean ± standard error; for Cleavage rate (%): 48 h after IVF, modulators added to in vitro maturation medium; for D7 blastocyst rate (%): day 7 of culture
Method: Ovine ovaries were collected in a slaughterhouse, placed in normal saline at 35° C., and transported to the laboratory within 2 h. The ovaries were washed three times with normal saline, and follicles were punctured using a 20 G needle containing 5 mL of oocyte collection medium to release cumulus-oocyte complexes. The COCs with uniform cytoplasm and at least 3 layers of cumulus cells were collected Under a stereomicroscope.
as §1, §3
The collected ovine oocytes were washed three times with washing medium, then washed 3 times with the basal in vitro oocyte maturation medium pre-equilibrated for 3 h in advance, transferred to the in vitro maturation culture mediums of the control and experimental groups, and incubated in a 5% CO2, 38.5° C. incubator with saturated humidity for 22-24 h. Four-well plates were used for culture, and each well contained 600 μL of in vitro maturation culture medium and 30-35 ovine cumulus-oocyte complexes, and was covered with 300 μL of mineral oil. In vitro maturation of ovine oocytes was performed according to different groups.
For the control group, the basal in vitro oocyte maturation medium was used. The basal in vitro oocyte maturation medium was prepared as follows: TCM199+10% estrus ovine serum+1 μg/mL follicle-stimulating hormone+1 μg/mL luteinizing hormone+1 μg/mL β-estradiol+12 μg/mL DL-cysteine+100 μg/mL streptomycin+100 IU/mL penicillin.
After in vitro maturation, the matured oocytes were subjected to in vitro fertilization (IVF). Briefly, COCs were washed three times in synthetic oviductal fluid (SOF) medium with 0.2% hyaluronidase to remove cumulus cells and transferred into the IVF medium, which consisted of synthetic oviduct fluid (SOF) medium containing 2% estrus sheep serum (ESS), 3 mg/mL BSA, 6 IU/mL heparin sodium and 50 IU/mL gentamicin. For IVF, frozen semen was removed from the liquid nitrogen and thawed in a water bath at 39° C. for 1 min. Then, the sperm diluted with IVF medium and swimming up for 30 min at 38.5° C. in a humidified atmosphere at 5% CO2. The upper layer of semen was transferred into a 1.5 mL tube and then centrifuge for 5 min at 2000 rpm. The spermatozoa were carefully collected from the bottom of the centrifuge tube and added into each IVF medium with a final concentration of approximately 1×10^6 sperm/mL. Then, the oocyte and sperm were co-incubated for 20 h at 38.5° C. with 5% CO2 in a humidified atmosphere. All reagents were purchased from Sigma-Aldrich.
After IVF, presumptive zygotes were washed three times in IVC medium and then transferred to SOF medium supplemented with 1% BME-essential amino acids, 1% MEM-nonessential amino acids, 1 mM glutamine and 3 mg/mL BSA and cultured at 38.6° C. in a humidified environment with an 88% N2, 5% CO2, 7% O2. The cleavage rate and blastocyst rate were recorded at 48 h and 6-7 d after IVF. After 48 h of culture, the cleavage rate was calculated. The culture was continued until day 7, and the blastocyst rate was calculated.

Molecule | Pregnancy rate (%) [1] | Number of pregnancies [1] | total number of blastocyst cells [2] | Number of pregnancies [3] | Pregnancy rate (%) [3] | D8 blastocyst rate (%) [4] | effect on 48-h cleavage rate compared with the control group [4] | effect on blastocyst development efficiency compared with the control group [4] | 48-h cleavage rate (%) [4] | Cleavage rate (%) [5] | D7 blastocyst rate (%) [5] | effect on pregnancy rate after embryo transfer compared with the control group ([3]; in words)
O=C1O[C@H]([C@@H](O)CO)C(O)=C1O [Treatment group 1, vitamin C] | 50.0^a % | 25 | 80.6±3.2 | 11 | 42.3%^a | 33.1 ± 1.3^b % | did not affect | enhanced | 68.7 ± 3.1% | 75.64 ± 2.83^a % | 38.79 ± 1.97^b % | 
C[N+](C)(C)C[C@H](O)CC(=O)[O-] [Treatment group 2, L-carnitine] | 54.2^a % | 26 | 82.6±2.7 | 12 | 46.2%^b | 32.4 ± 0.8^b % | did not affect | enhanced | 69.5 ± 4.3% | 74.32 ± 2.31^a % | 37.61 ± 1.85^b % | can improve
Thrombopoietin [Treatment group 3] | 53.1^a % | 26 | 79.4±2.3 | 11 | 42.3%^a | 32.2 ± 2.0^b % |  |  | 67.4 ± 3.8% | 75.38 ± 2.43^a % | 38.01 ± 1.50^b % | 
